# ChEMBL document CHEMBL4665762, “Conosiligins A-D, Ring-Rearranged Tremulane Sesquiterpenoids from Conocybe siliginea” (J Nat Prod, 2020)
# pIC50: −log10 of the molar value.
# Assay: Inhibition of Con A-induced BALB/c mouse T cell proliferation after 48 hrs by [3H]-thymidine incorporation assay
# Format: functional, tissue-based
row,Compound,pIC50
1,C[C@@]12CO[C@]3(C1)c1coc(=O)cc1O[C@H](CO)[C@H]3C2,5.18
2,C[C@@H]1C(=O)C2=C(COC2=O)[C@@H]2C[C@@](C)(CO)C[C@H]12,4.91
